A word on the IC50: it is the concentration that inhibits the measured activity by half. A low value points to higher potency.

This assay is described as follows: DPPH radical scavenging activity. Type of assay: functional.
The compound `Oc1c(O)c(Br)c(COCc2c(Br)c(O)c(O)c(Br)c2Br)c(Br)c1Br` came in with an IC50 of 8.5 µM. This counts as single-digit micromolar.

With `Cc1cc(C(C)(C)C)c(O)c(C(C)(C)C)c1` [BUTYLATED HYDROXYTOLUENE], the IC50 worked out at 81.8 µM. Next, `Oc1c(O)c(Br)c(CCc2c(Br)c(O)c(O)c(Br)c2Br)c(Br)c1Br`: 10.2 µM; `CS(=O)(=O)Cc1c(Br)c(O)c(O)c(Br)c1Br`: 24 µM. Take `COCc1c(Br)c(O)c(O)c(Br)c1Cc1c(Br)c(O)c(O)c(Br)c1Br`: inhibition was half-maximal at 10.5 µM (IC50). Against the preceding compound, the IC50 is about 2.3-fold lower.

In turn, `Oc1c(O)c(Br)c(Cc2c(Br)c(O)c(O)c(Br)c2Br)c(Br)c1Br` yielded an IC50 of 8.1 µM. In the case of `COCc1c(Br)c(O)c(O)c(Br)c1Br`, inhibition was half-maximal at 15.5 µM (IC50).

On to `O=Cc1c(Br)c(O)c(O)c(Br)c1Br`, for which 24.7 µM corresponded to half-maximal inhibition (IC50). For `O=C1CCCN1Cc1c(Br)c(O)c(O)c(Br)c1Br` the value was 18.5 µM; for `Cc1c(Br)c(O)c(O)c(Br)c1Br`, 14 µM.

Values taken from ChEMBL document CHEMBL1146218, “Highly brominated mono- and bis-phenols from the marine red alga Symphyocladia latiuscula with radical-scavenging activity” (J Nat Prod, 2007).
